Experimental data: publication PMC7031696 (Cell chemical biology, 2019)
Read-outs that look alike come from different tables or passages of the source.

Key:
[1] = system: Plasmodium falciparum 3D7-A10 parasites; test: Stage specificity assay (8-h exposure of synchronized stages, IC50^8h); assay type: cell-based; settings: for Ratio lowest IC50 8hr/IC50 72hr: 3D7-A10; for IC50: Plasmodium falciparum
[2] = system: asynchronous 3D7-A10 parasite cultures; test: Standard 72-h exposure asexual blood stage susceptibility assay (IC50^72h); assay type: cell-based, Plasmodium falciparum; settings: Plasmodium falciparum, 3D7, 72 h, read-out: Overall (72hr assay) Mean IC50 (IC50^72h)
[3] = system: 3D7-MR4 trophozoite parasite-infected RBCs; test: Metabolomic profiling (hydrophilic metabolite changes, UHPLC-MS); assay type: cell-based, Plasmodium falciparum
[4] = 3D7, read-out: Early trophozoites Mean IC50 (IC50^8h), 8-h exposure 16–24 hr, 3D7-A10, survival at 60 h
[5] = 3D7, read-out: Late trophozoites Mean IC50 (IC50^8h), 8-h exposure 24–32 hr, 3D7-A10, survival at 60 h
[6] = 3D7, read-out: Schizonts Mean IC50 (IC50^8h), 8-h exposure 32–40 hr, 3D7-A10, survival at 60 h
[7] = 3D7, read-out: Early rings IC50 (IC50^8h), 8-h exposure 0–8 hr, bound given in μM
[8] = 3D7, read-out: Late rings IC50 (IC50^8h), 8-h exposure 8–16 hr, bound given in μM

CCOC(=O)C1=C(C)NC2=C(C(=O)CC(c3ccc(OC)c(OC)c3)C2)C1c1ccccc1Cl (stereo not drawn) [GNF-Pf-5660, reference compound]
Ratio lowest IC50 8hr/IC50 72hr [1]: 18.0 | IC50 ([1]; 3D7, read-out: Early rings Mean IC50 (IC50^8h), 8-h exposure 0–8 hr, 3D7-A10, survival at 60 h): 0.119 µM | IC50 [1, 4]: 0.108 µM | IC50 ([1]; 3D7, read-out: Late rings Mean IC50 (IC50^8h), 8-h exposure 8–16 hr, 3D7-A10, survival at 60 h): 0.238 µM | IC50 [1, 5]: 0.0793 µM | IC50 [1, 6]: 0.29 µM | Stage of peak activity (Figure 6) ([1]; period when the parasite was most susceptible (lowest IC50^8h)): rings and trophozoites | IC50 [2]: 4.4 nM | peptide levels (hemoglobin catabolism signature) ([3]; 10 × IC50^72h, 2.5 hr, trophozoites): decreased peptide levels | Log2(fold changes) 3-phosphoglycerate ([3]; metabolite 3-phosphoglycerate, log2 fold change): 0.0553 | Log2(fold changes) 4-Pyridoxic acid ([3]; metabolite 4-Pyridoxic acid, log2 fold change): 0.0311 | Log2(fold changes) 4-aminobutyrate ([3]; metabolite 4-aminobutyrate, log2 fold change): -0.1913 | Log2(fold changes) 4-phosphopantetheine ([3]; metabolite 4-phosphopantetheine, log2 fold change): -0.0588 | Log2(fold changes) 4-phosphopantothenate ([3]; metabolite 4-phosphopantothenate, log2 fold change): -0.0656 | Log2(fold changes) 5-aminopentanoic acid ([3]; metabolite 5-aminopentanoic acid, log2 fold change): 0.0000 | Log2(fold changes) 5-methyl-THF ([3]; metabolite 5-methyl-THF, log2 fold change): 0.0000 | Log2(fold changes) 5-phosphoribosyl-1-pyrophosphate ([3]; metabolite 5-phosphoribosyl-1-pyrophosphate, log2 fold change): 0.0000 | Log2(fold changes) 6-phospho-D-gluconate ([3]; metabolite 6-phospho-D-gluconate, log2 fold change): -0.0448 | Log2(fold change) HVDD ([3]; metabolite HVDD): -2.3471 | Log2(fold change) Hydroxyisocaproic acid ([3]; metabolite Hydroxyisocaproic acid): 0.0000 | Log2(fold change) IDP ([3]; metabolite IDP): 0.0000 | Log2(fold change) IMP ([3]; metabolite IMP): -0.0436 | Log2(fold change) Inositol ([3]; metabolite Inositol): 0.0000 | Log2(fold change) Isopentyl-PP ([3]; metabolite Isopentyl-PP): 0.0000 | Log2(fold change) L-arginino-succinate ([3]; metabolite L-arginino-succinate): -1.4037 | Log2(fold change) LD ([3]; metabolite LD): 0.0323 | Log2(fold change) Myristoyl/tetradecanoyl-CoA ([3]; metabolite Myristoyl/tetradecanoyl-CoA): 0.0000 | Log2(fold change) N-Acetyl-L-alanine ([3]; metabolite N-Acetyl-L-alanine): -0.5679 | Log2(fold change) N-acetyl-L-ornithine ([3]; metabolite N-acetyl-L-ornithine): -1.3851 | Log2(fold change) N-acetyl-glucosamine-1/6-phosphate ([3]; metabolite N-acetyl-glucosamine-1/6-phosphate): 0.1805 | Log2(fold change) N-acetyl-glutamate ([3]; metabolite N-acetyl-glutamate): 0.1150 | Log2(fold change) N-acetyl-glutamine ([3]; metabolite N-acetyl-glutamine): -0.5582 | Log2(fold change) N-carbamoyl-L-aspartate ([3]; metabolite N-carbamoyl-L-aspartate): -0.1586 | Log2(fold change) NAD+ ([3]; metabolite NAD+): -0.1007 | Log2(fold change) NADH ([3]; metabolite NADH): 0.4611 | Log2(fold change) NADP+ ([3]; metabolite NADP+): 0.0287 | Log2(fold change) NADPH ([3]; metabolite NADPH): 0.0479 | Log2(fold change) O-acetyl-L-serine ([3]; metabolite O-acetyl-L-serine): 0.0000 | Log2(fold change) Octoluse 8/1P ([3]; metabolite Octoluse 8/1P): -0.0806 | Log2(fold change) Octoluse Bisphosphate ([3]; metabolite Octoluse Bisphosphate): -0.3183 | Log2(fold change) PD ([3]; metabolite PD): -1.8683 | Log2(fold change) PE ([3]; metabolite PE): -1.8289 | Log2(fold change) PEE ([3]; metabolite PEE): -1.8489 | Log2(fold change) PEEK ([3]; metabolite PEEK): -2.1431 | Log2(fold change) PVNF ([3]; metabolite PVNF): -2.1997 | Log2(fold change) Pyroglutamic acid ([3]; metabolite Pyroglutamic acid): -0.1216 | Log2(fold change) Pyrophosphate ([3]; metabolite Pyrophosphate): 0.0000 | Log2(fold change) Ribose-5-phosphate ([3]; metabolite Ribose-5-phosphate): 0.0000 | Log2(fold change) S-adenosyl-L-homocysteine ([3]; metabolite S-adenosyl-L-homocysteine): -0.0693 | Log2(fold change) S-adenosyl-L-methioninamine ([3]; metabolite S-adenosyl-L-methioninamine): 0.0000 | Log2(fold change) S-adenosyl-L-methionine ([3]; metabolite S-adenosyl-L-methionine): 0.0000 | Log2(fold change) S-methyl-5'-thioadenosine ([3]; metabolite S-methyl-5'-thioadenosine): -0.0720 | Log2(fold change) SD ([3]; metabolite SD): -1.1525 | Log2(fold change) SDL ([3]; metabolite SDL): -1.7902 | Log2(fold change) SID ([3]; metabolite SID): 0.0000 | Log2(fold change) Sedoheptulose bisphosphate ([3]; metabolite Sedoheptulose bisphosphate): -0.1508 | Log2(fold change) Thiamine pyrophosphate ([3]; metabolite Thiamine pyrophosphate): 0.0000 | Log2(fold changes) UDP-D-glucose ([3]; metabolite UDP-D-glucose, log2 fold change): 0.0139 | Log2(fold changes) UDP-D-glucuronate ([3]; metabolite UDP-D-glucuronate, log2 fold change): 0.0860 | Log2(fold changes) UDP-N-acetyl-glucosamine ([3]; metabolite UDP-N-acetyl-glucosamine, log2 fold change): -0.0276 | Log2(fold changes) UDP ([3]; metabolite UDP, log2 fold change): 0.1561 | Log2(fold changes) UMP ([3]; metabolite UMP, log2 fold change): -0.3498 | Log2(fold changes) UTP ([3]; metabolite UTP, log2 fold change): 0.0000 | Log2(fold change) hydroxyphenylpyruvate ([3]; metabolite hydroxyphenylpyruvate): 0.0000 | Log2(fold change) hydroxyproline/Aminolevulinate ([3]; metabolite hydroxyproline/Aminolevulinate): 0.0000 | Log2(fold change) hypoxanthine ([3]; metabolite hypoxanthine): 0.0715 | Log2(fold change) indole ([3]; metabolite indole): -0.1422 | Log2(fold change) inosine ([3]; metabolite inosine): -0.1669 | Log2(fold change) isoleucine ([3]; metabolite isoleucine): 0.0000 | Log2(fold change) lactate ([3]; metabolite lactate): -0.0958 | Log2(fold change) leucine ([3]; metabolite leucine): 0.0000 | Log2(fold change) lysine ([3]; metabolite lysine): 0.0000 | Log2(fold change) malate ([3]; metabolite malate): -0.8784 | Log2(fold change) maleic acid ([3]; metabolite maleic acid): -0.8581 | Log2(fold change) methionine ([3]; metabolite methionine): -0.1925 | Log2(fold change) myo-inositol ([3]; metabolite myo-inositol): 0.0386 | Log2(fold change) nicotinamide mononucleotide ([3]; metabolite nicotinamide mononucleotide): -0.1106 | Log2(fold change) nicotinate ([3]; metabolite nicotinate): 0.1148 | Log2(fold change) ornithine ([3]; metabolite ornithine): -0.1689 | Log2(fold change) orotate ([3]; metabolite orotate): -0.3275 | Log2(fold change) orotidine-5'-phosphate ([3]; metabolite orotidine-5'-phosphate): -1.3140 | Log2(fold change) oxaloacetate ([3]; metabolite oxaloacetate): -0.1481 | Log2(fold change) p-aminobenzoate ([3]; metabolite p-aminobenzoate): -0.1878 | Log2(fold change) p-hydroxybenzoate ([3]; metabolite p-hydroxybenzoate): 0.0000 | Log2(fold change) pantothenate ([3]; metabolite pantothenate): -0.2858 | Log2(fold change) phenylalanine ([3]; metabolite phenylalanine): -0.3503 | Log2(fold change) phenylpyruvate ([3]; metabolite phenylpyruvate): 0.0000 | Log2(fold change) phosphoenolpyruvate ([3]; metabolite phosphoenolpyruvate): 0.2491 | Log2(fold change) prephenate ([3]; metabolite prephenate): -0.5893 | Log2(fold change) proline ([3]; metabolite proline): 0.0000 | Log2(fold change) pyridoxine ([3]; metabolite pyridoxine): -0.1054 | Log2(fold change) pyruvate ([3]; metabolite pyruvate): -0.3244 | Log2(fold change) riboflavin ([3]; metabolite riboflavin): -0.0162 | Log2(fold change) ribose ([3]; metabolite ribose): 0.0000 | Log2(fold change) ribose-phosphate ([3]; metabolite ribose-phosphate): -0.2537 | Log2(fold change) ribulose-5-phosphate ([3]; metabolite ribulose-5-phosphate): 0.0000 | Log2(fold change) serine ([3]; metabolite serine): 0.0000 | Log2(fold change) sn-glycerol-3-phosphate ([3]; metabolite sn-glycerol-3-phosphate): 0.1845 | Log2(fold change) succinate/Methylmalonic acid ([3]; metabolite succinate/Methylmalonic acid): -0.0086 | Log2(fold change) succinyl-CoA/methylmalonyl-CoA ([3]; metabolite succinyl-CoA/methylmalonyl-CoA): 0.0000 | Log2(fold change) taurine ([3]; metabolite taurine): 0.0000 | Log2(fold change) thiamine ([3]; metabolite thiamine): -0.1840 | Log2(fold change) threonine/homoserine ([3]; metabolite threonine/homoserine): 0.0000 | Log2(fold change) thymidine ([3]; metabolite thymidine): 0.0000 | Log2(fold changes) thymine ([3]; metabolite thymine, log2 fold change): 0.0000 | Log2(fold changes) trehalose-6-Phosphate ([3]; metabolite trehalose-6-Phosphate, log2 fold change): 0.0000 | Log2(fold changes) tryptophan ([3]; metabolite tryptophan, log2 fold change): -0.0821 | Log2(fold changes) tyrosine ([3]; metabolite tyrosine, log2 fold change): -0.1854 | Log2(fold changes) uridine ([3]; metabolite uridine, log2 fold change): -0.2184

CCOC(=O)C1=C(C)N=c2s/c(=C\c3cc(Cl)ccc3O)c(=O)n2C1c1ccc(OC)cc1 (stereo not drawn) [MMV665971]
Ratio lowest IC50 8hr/IC50 72hr [1]: 2.6 | killing in stage specificity assay ([1]; 8-h exposures, survival curves): incomplete killing at all asexual blood stages | IC50 [1, 7]: > 25 µM | IC50 [1, 4]: 0.496 µM | IC50 [1, 8]: > 25 µM | IC50 [1, 5]: 0.485 µM | IC50 [1, 6]: 0.523 µM | IC50 [2]: 185 nM

O=CN(O)CCCP(=O)(O)O [Fosmidomycin, reference compound]
Ratio lowest IC50 8hr/IC50 72hr [1]: 4.9 | IC50 ([1]; 3D7, 8 h, read-out: IC50^8h values at all tested stages, 8-h exposures, all asexual blood stages): > 1 µM | IC50 [1, 7]: > 10 µM | IC50 [1, 4]: 1.98 µM | IC50 [1, 8]: > 10 µM | IC50 [1, 5]: 1.99 µM | IC50 ([1]; 3D7, read-out: Schizonts IC50 (IC50^8h), 8-h exposure 32–40 hr, bound given in μM): > 10 µM | Peak Activity (Table S1) ([1]; stage(s) with the lowest IC50^8h): Trophs | IC50 [2]: 405 nM
